Experiment [1] deals with T1, hNav1.4 (Homo sapiens, UniProt P35499, F1586C).
T1 construct: gene SCN4A
Description: whole-cell patch clamp, peak INa. Particulars: read-out: 0.1 Hz / IC50. It is filed as cell-based. The source says:
(§1) whole-cell patch clamp, peak INa on hNav1.4

Experiment [2] has as its target T2, hNav1.4 (Homo sapiens, UniProt P35499).
T2 construct: gene SCN4A
Kind of experiment: whole-cell patch clamp, peak INa. It is filed as cell-based. The conditions noted are these: read-out: 0.1 Hz / IC50.
From the text: as §1

T1 sequence (P35499 whole entry F1586C): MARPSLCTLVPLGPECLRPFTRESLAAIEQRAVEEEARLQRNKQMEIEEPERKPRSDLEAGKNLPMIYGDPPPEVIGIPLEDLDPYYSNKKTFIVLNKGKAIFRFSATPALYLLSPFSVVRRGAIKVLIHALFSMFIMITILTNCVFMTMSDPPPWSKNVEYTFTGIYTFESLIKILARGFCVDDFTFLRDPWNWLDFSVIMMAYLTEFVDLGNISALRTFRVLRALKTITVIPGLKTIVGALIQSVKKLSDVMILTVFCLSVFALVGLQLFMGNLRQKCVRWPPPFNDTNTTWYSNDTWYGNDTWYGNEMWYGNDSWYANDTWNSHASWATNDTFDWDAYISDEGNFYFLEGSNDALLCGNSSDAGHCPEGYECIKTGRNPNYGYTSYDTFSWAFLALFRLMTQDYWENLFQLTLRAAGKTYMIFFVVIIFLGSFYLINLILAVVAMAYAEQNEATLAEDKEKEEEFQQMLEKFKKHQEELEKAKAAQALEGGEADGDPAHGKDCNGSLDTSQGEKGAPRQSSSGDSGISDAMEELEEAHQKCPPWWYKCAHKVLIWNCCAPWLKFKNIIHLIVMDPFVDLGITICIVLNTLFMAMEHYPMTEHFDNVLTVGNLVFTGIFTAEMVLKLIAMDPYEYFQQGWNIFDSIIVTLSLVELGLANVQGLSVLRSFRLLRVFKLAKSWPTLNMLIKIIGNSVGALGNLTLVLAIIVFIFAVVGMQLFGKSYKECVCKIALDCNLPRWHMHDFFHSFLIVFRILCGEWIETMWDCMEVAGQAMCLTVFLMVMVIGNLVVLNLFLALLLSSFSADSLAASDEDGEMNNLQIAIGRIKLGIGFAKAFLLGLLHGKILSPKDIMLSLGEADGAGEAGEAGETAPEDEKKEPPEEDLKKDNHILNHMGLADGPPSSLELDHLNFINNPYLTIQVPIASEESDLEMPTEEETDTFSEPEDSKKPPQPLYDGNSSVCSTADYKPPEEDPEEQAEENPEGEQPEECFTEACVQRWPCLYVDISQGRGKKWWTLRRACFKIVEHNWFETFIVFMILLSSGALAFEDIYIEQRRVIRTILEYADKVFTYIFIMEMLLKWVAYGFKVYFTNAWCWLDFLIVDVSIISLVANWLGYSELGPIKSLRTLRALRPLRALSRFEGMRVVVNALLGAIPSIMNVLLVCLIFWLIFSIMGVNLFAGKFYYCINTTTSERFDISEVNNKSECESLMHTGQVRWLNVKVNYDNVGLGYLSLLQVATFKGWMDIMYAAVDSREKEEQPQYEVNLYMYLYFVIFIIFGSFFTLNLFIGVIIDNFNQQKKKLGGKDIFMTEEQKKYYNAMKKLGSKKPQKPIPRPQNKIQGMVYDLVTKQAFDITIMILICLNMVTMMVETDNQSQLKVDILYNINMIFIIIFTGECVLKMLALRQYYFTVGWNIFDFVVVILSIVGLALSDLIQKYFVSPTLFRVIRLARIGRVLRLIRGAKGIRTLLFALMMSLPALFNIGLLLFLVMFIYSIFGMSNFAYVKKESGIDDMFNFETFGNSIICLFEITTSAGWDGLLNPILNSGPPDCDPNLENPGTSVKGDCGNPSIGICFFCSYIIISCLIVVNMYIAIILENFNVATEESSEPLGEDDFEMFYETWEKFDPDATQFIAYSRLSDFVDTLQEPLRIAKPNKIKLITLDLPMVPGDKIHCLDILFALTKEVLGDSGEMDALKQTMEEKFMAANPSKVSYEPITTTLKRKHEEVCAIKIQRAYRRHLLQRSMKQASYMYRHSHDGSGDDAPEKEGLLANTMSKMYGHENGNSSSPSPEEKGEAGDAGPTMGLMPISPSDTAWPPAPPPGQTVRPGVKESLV
T2 sequence (P35499 whole entry): as the sequence (P35499 whole entry F1586C) above, with C1586F counted along it

Take `CNC[C@H](C)Oc1cccc2ccccc12` [(S)-22b]: the values for the IC50 in experiment [1] and in experiment [2] were 215 ± 5 µM and 51 ± 2 µM, respectively.

The values above are taken from paper PMC4513211, “Inhibition of voltage-gated sodium channels by sumatriptan bioisosteres” (Frontiers in Pharmacology, 2015).
